In patent publication US4145554A, “3-Nitropyrazole derivatives” (Eli Lilly and Company, priority 1977, dated 1979):
Values after ≈ are worked out from the molar mass of the structure shown. Values joined by “and” are separate entries in the source; they are usually repeats but may differ in a detail not shown here. Equal entries are not always repeated.

How the values were obtained:
[1] = test system: Salmonella heidelburg 1593; experiment: in vitro tube dilution test (MIC); type: cell-based; details: Salmonella heidelburg 1593 (turkey pancreas), tube dilution
From the text: (§1) Our compound, 1-(2-hydroxyethyl)-3-nitro-4-pyrazolecarboxamide, has been extensively tested in vitro to determine the range of microorganisms against which it is active. The table of data below reports the minimum inhibitory concentration (MIC) at which the compound is effective in controlling a variety of microorganisms in a standard tube dilution test system. The MIC is reported as micrograms of compound per milliliter.
(§2) The other preferred compounds of our invention have also been thoroughly tested in the in vitro tube dilution test.

[2] = test system: Salmonella typhimurium 1335; experiment: in vitro tube dilution test (MIC); type: cell-based; details: Salmonella enterica; Salmonella typhimurium 1335 (turkey intestine), tube dilution
From the text: as §1, §2

Pseudomonas sp. = experiment: in vitro tube dilution test (MIC); type: cell-based
From the text: as §1, §2

Salmonella pullorum Ill. = experiment: in vitro tube dilution test (MIC); type: cell-based; details: Salmonella enterica
From the text: as §1, §2

Mycoplasma hyorhinis = experiment: in vitro tube dilution test (MIC); type: cell-based
From the text: as §1, §2

P. multocida [3] = experiment: Pasteurellosis in turkeys; type: in vivo; details: 100 gm./ton
Shigella sp. = experiment: agar dilution technique (MIC); type: cell-based
P. multocida [4] = experiment: Pasteurellosis in chickens; type: in vivo; details: 100 gm. per ton of feed
[5] = test system: naturally-occurring pneumoenteritis complex infection (pasteurella species, E. coli and salmonellae); experiment: Pneumoenteritis complex disease in calves, second test; type: in vivo
Description: The test reported below was conducted in general identically with the test above. All of the calves used in the test were approximately 3 days old when the test began, and the test ran for 56 days.
The treated group received 200 mg./day/calf (about 3-5 mg./kg./day) of 1-(2-hydroxyethyl)-3-nitro-4-pyrazolecarboxamide, which was administered in the calves' milk replacer diet.
The table below reports the average weight gain of the surviving animals and the mortality of the calves in each group.

Salmonella typhimurium = experiment: Salmonellosis in chickens, single injection to day-old chicks; type: in vivo; details: Salmonella enterica, TYPHIMURIUM, 168 h; single injection of 60 mg./kg.; seven days; read-out: Survival (converted)
In short: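 Five day-old chicks per group received one injection of compound at 60 mg./kg., then were challenged next day by subcutaneous S. typhimurium at a dose lethal to most or all untreated controls. Read-out is survivor count, pooled over repeat groups, with untreated challenged controls run in each batch.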

Diplococcus pneumoniae = experiment: agar dilution technique (MIC); type: cell-based; details: Streptococcus pneumoniae
Salmonella pullorum 9-27 = experiment: in vitro tube dilution test (MIC); type: cell-based; details: Salmonella enterica; Salmonella pullorum 9-27, tube dilution
Hemophilus influenzae = experiment: agar dilution technique (MIC); type: cell-based; details: Haemophilus influenzae
Erysipelas insidiosa = experiment: in vitro tube dilution test (MIC); type: cell-based
Staphylococcus sp. = experiment: in vitro tube dilution test (MIC); type: cell-based
Leptospira (5 serotypes) = experiment: in vitro tube dilution test (MIC); type: cell-based
M. gallisepticum = experiment: Mycoplasma gallisepticum in chickens; type: in vivo
Description: A group of broiler type chickens, weighing about 1265 gm., were obtained from a homogeneous source flock. The birds were allocated into 12-bird treatment groups of equal weight. Four treatment groups were used in each of the treatments, including the untreated infected controls; two groups were held as normal controls.
The birds, other than the normal controls, were challenged by administering two 0.2 ml. injections of a freshly thawed M. gallisepticum culture to each bird, one injection in the wing vein and one in the air sac. Immediately after the challenge, four of the treatment groups were treated by injecting 25 mg./kg., intramuscularly, of 1-(2-hydroxyethyl)-3-nitro-4-pyrazolecarboxamide to each chicken. The other four treated groups received the same compound at 2 gm./gal. (about 50 mg./kg./day) in their drinking water for a period of 41/2 days after the challenge was administered.
The birds were held and observed for about 3 weeks. Mortality in the experiment was negligible. At the end of the observation period, the birds were sacrificed and examined for M. gallisepticum lesions of the air sac. A sample of blood from each bird was tested to determine the presence of M. gallisepticum antibodies. […] The final average weights and the air sac lesion counts are shown below.

Citrobacter freundii = experiment: agar dilution technique (MIC); type: cell-based
Staphylococcus aureus = experiment: agar dilution technique (MIC); type: cell-based
Pseudomonas aeruginosa = experiment: agar dilution technique (MIC); type: cell-based

NC(=O)c1cn(CCO)nc1[N+](=O)[O-] [Compound 32, 1-(2-hydroxyethyl)-3-nitro-4-pyrazolecarboxamide]
MIC [1]: < 1.56 µg/mL
MIC [2]: 6.25 µg/mL (≈ 31.2 µM)
MIC (Pseudomonas sp.): 12.5 µg/mL (≈ 62.5 µM)
MIC (Salmonella pullorum Ill.): < 1.56 µg/mL
MIC (Mycoplasma hyorhinis): 50 µg/mL (≈ 250 µM)
Mortality Rate (P. multocida [3]): 20%
Culture Isolation (P. multocida [3]; about 5 mg./kg./day): 1/5
Mortality Rate (P. multocida [3]; about 5 mg./kg./day): 1/5
MIC (Shigella sp.): 16 µg/mL (≈ 79.9 µM)
Mortality (P. multocida [4]): about 12%
presence of isolable P. multocida in treated birds (P. multocida [4]): about half of the treated birds
Culture Isolation (P. multocida [4]; individual 8-bird group): 6/8 and 3/8
Mortality Rate (P. multocida [4]; individual 8-bird group): 2/8 and 0/8
Culture Isolation, Total (P. multocida [4]; total of two groups): 9/16
Mortality Rate, Total (P. multocida [4]; total of two groups): 2/16
Mortality ([5]; 200 mg./day/calf): about 12%
surviving treated calves with E. coli in rectal swabs ([5]; 200 mg./day/calf): all of the surviving treated calves
survivors with P. multocida organisms in nasal secretions ([5]; 200 mg./day/calf): 6 of the survivors
Mortality ([5]; 200 mg./day/calf (about 3-5 mg./kg./day), 56 days): 1/8
Avg. Wt. Gain ([5]; 200 mg./day/calf (about 3-5 mg./kg./day), 56 days, survivors): 52.1 lbs.
responders at 60 mg/kg (Salmonella typhimurium): 93.3%
MIC (Diplococcus pneumoniae): 2 µg/mL (≈ 9.99 µM)
MIC (Salmonella pullorum 9-27): < 1.56 µg/mL
MIC (Hemophilus influenzae): 4 µg/mL (≈ 20 µM)
MIC (Erysipelas insidiosa): > 50 µg/mL
MIC (Staphylococcus sp.): 3.12 µg/mL (≈ 15.6 µM)
MIC (Leptospira (5 serotypes)): > 100 µg/mL
Air Sac Lesions (M. gallisepticum; 25 mg./kg. (injected)): 41/48
Avg. Wt. (M. gallisepticum; 25 mg./kg. (injected)): 2093 gm.
Air Sac Lesions (M. gallisepticum; 2.0 gm./gal. drinking water): 24/47
Avg. Wt. (M. gallisepticum; 2.0 gm./gal. drinking water): 2188 gm.
increase of birds' weight (M. gallisepticum; in one case (average, each)): more than 160 gm.
increase of birds' weight (M. gallisepticum; in the other treatment (average, each)): ~260 gm.
MIC (Citrobacter freundii): 8 µg/mL (≈ 40 µM)
MIC (Staphylococcus aureus): 8 to 16 µg/mL (≈ 40 to 79.9 µM)
MIC (Pseudomonas aeruginosa): 128 µg/mL (≈ 640 µM)
